Results reported in patent publication US20230202989A1, “COMPOUNDS” (JANSSEN PHARMACEUTICA NV, priority 2020, published 2023).
Read-outs that look alike come from different tables or passages of the source.

Assays:
[1] = test system: IL-1β; assay: PBMC assay: inhibition of IL-1β release after LPS stimulation (MSD); type: cell-based; settings: Homo sapiens, PBMC, human PBMCs, read-out: IL1β IC50
Procedure: Peripheral venous blood s collected from health individuals and human peripheral blood mononuclear cells (PBMCs) ere isolated from blood by Ficoll Histopaque (Sigma-Aldrich, A0561) density gradient centrifugation. After isolation, PBMCs were stored in liquid nitrogen for later use. Upon thawing, PBMC cell viability was determined in growth medium (RPMI media supplemented with 10% fetal bovine serum, 1% Pen-Strep and 1% L-glutamine). […] PBMCs were added at a density of 7.5×10^4 cells per well and incubated for 30 min in a 5% CO2 incubator at 37° C. LPS stimulation was performed by addition of 100 ng/ml LPS (final concentration, Invivogen, tlrl-smlps) for 6 hrs followed by collection of cellular supernatant and the analysis of IL-1β (μM) and TNF cytokines levels (μM) via MSD technology according to manufacturers' guidelines (MSD, K151A0H).
(§1) The IC50 values (for IL-1β) and EC50 values (TNF) were obtained on compounds of the invention/examples, and are depicted in the following table: […]

[2] = test system: TNF; assay: PBMC assay: TNF cytokine levels after LPS stimulation (MSD); type: cell-based; settings: Homo sapiens, PBMC, 6 h, human PBMCs, 100 ng/ml LPS for 6 hrs
Procedure: Peripheral venous blood s collected from health individuals and human peripheral blood mononuclear cells (PBMCs) ere isolated from blood by Ficoll Histopaque (Sigma-Aldrich, A0561) density gradient centrifugation. After isolation, PBMCs were stored in liquid nitrogen for later use. Upon thawing, PBMC cell viability was determined in growth medium (RPMI media supplemented with 10% fetal bovine serum, 1% Pen-Strep and 1% L-glutamine). Compounds were spotted in a 1:3 serial dilution in DMSO and diluted to the final concentration in 30 μl medium in 96 well plates (Falcon, 353072). PBMCs were added at a density of 7.5×10^4 cells per well and incubated for 30 min in a 5% CO2 incubator at 37° C. LPS stimulation was performed by addition of 100 ng/ml LPS (final concentration, Invivogen, tlrl-smlps) for 6 hrs followed by collection of cellular supernatant and the analysis of IL-1β (μM) and TNF cytokines levels (μM) via MSD technology according to manufacturers' guidelines (MSD, K151A0H).
as §1

[3] = 6 h, 100 ng/ml LPS for 6 hrs, MSD, 96 well plates

SMILES	IC50 [1, 3]	EC50 [2]	IC50 ([1]; LPS stimulation, 384 well plate)
O=C(Cn1nc(C(F)F)c2cc(Br)ccc2c1=O)Nc1ccc2nncn2n1 [X-1000]	0.122 µM	> 20 µM	
CC(C)c1nn(CC(=O)Nc2ccc3cncn3c2)c(=O)c2ccc(Cl)cc12 [X-1030]	0.436 µM	> 20 µM	
CCN1CC[C@H](NC(=O)Cn2nc(C(C)C)c3cc(C(F)(F)F)ccc3c2=O)[C@H](O)C1 (single isomer, unassigned) [Final Cpd X147]	5.94 µM	> 20 µM	
CC(C)c1nn(CC(=O)Nc2ccncn2)c(=O)c2ccc(C(C)(C)C)cc12 [X-1050]	0.99 µM	> 20 µM	
CC(C)c1nn(CC(=O)Nc2ccc3nncn3c2)c(=O)c2ccc(Br)cc12 [Final Cpd 36]	< 0.025 µM	> 10 µM	
CC(C)c1nn(CC(=O)N[C@@H]2CCC[C@H]2O)c(=O)c2ccc(C(F)(F)F)cc12 [Final Cpd X86]	0.915 µM	> 20 µM	
CC(C)c1nn(CC(=O)N[C@H]2COC[C@H](O)C2)c(=O)c2ccc(C(F)(F)F)cc12 (mixture of isomers) [Final Cpd X148]	6.32 µM	> 20 µM	
CC(C)c1nn(CC(=O)Nc2ncnc3c2ncn3C)c(=O)c2ccc(C(F)(F)F)cc12 [Final Cpd X69]	0.735 µM	> 20 µM	
CC(C)c1nn(CC(=O)Nc2ncc3ncn(C)c3n2)c(=O)c2ccc(C(F)(F)F)cc12 [Final Cpd X181]	> 20 µM	> 20 µM	
CCc1nn(CC(=O)Nc2ccncn2)c(=O)c2ccc(OC)cc12 [Final Cpd 11]	1.24 µM	> 10 µM	
CC(C)c1nn(CC(=O)Nc2ccncn2)c(=O)c2ccc(OC(F)(F)F)cc12 [X-1038]	2.51 µM	9.55 µM	
CC(C)c1nn(CC(=O)Nc2cc(C(F)(F)F)ncn2)c(=O)c2ccc(C(F)(F)F)cc12 [Final Cpd X178]	> 20 µM	> 20 µM	
CC(C)c1ccc2c(=O)n(CC(=O)Nc3cn4cnnc4cn3)nc(C(C)C)c2c1 [X-1086]	0.137 µM	> 20 µM	
COC(C)c1nn(CC(=O)N[C@H]2C[C@@](C)(O)C2)c(=O)c2ccc(Br)cc12 (some centres unmarked) [X-1018]	0.832 µM	> 20 µM	
CC(C)c1nn(CC(=O)N[C@H]2C[C@@](O)(C(F)(F)F)C2)c(=O)c2ccc(C(F)(F)F)cc12 [Final Cpd X119]	2.13 µM	> 20 µM	
CC(C)c1nn(CC(=O)Nc2ccc3nncn3n2)c(=O)c2ccc(C(C)(F)F)cc12 [X-1003]	0.04 µM	9.89 µM	
Cc1cc(NC(=O)Cn2nc(C(C)C)c3cc(C(F)(F)F)ccc3c2=O)nn(C)c1=O [Final Cpd X51]	0.44 µM	> 20 µM	
CCc1nn(CC(=O)Nc2ccncn2)c(=O)c2ccc(C(F)F)cc12 [Final Cpd 16]		> 10 µM	0.92 µM
CC(=O)N1C[C@@H](O)C[C@H](NC(=O)Cn2nc(C(C)C)c3cc(C(F)(F)F)ccc3c2=O)C1 (single isomer, unassigned) [Final Cpd X159]	10.3 µM	> 20 µM	
CC(O)c1nn(CC(=O)Nc2ccn(C(C)C)n2)c(=O)c2ccc(Br)cc12 (centres unmarked) [X-1079, 2-(6-bromo-4-(1-hydroxyethyl)-1-oxophthalazin-2(1H)-yl)-N-(1-isopropyl-1H-pyrazol-3-yl)acetamide]	9.79 µM	> 20 µM	
Cc1nnc2cc(NC(=O)Cn3nc(C(C)C)c4cc(C(F)(F)F)ccc4c3=O)ccn12 [Final Cpd X165]	16.1 µM	> 20 µM	
CC(C)c1nn(CC(=O)Nc2ccc3nccn3n2)c(=O)c2ccc(C(C)(C)F)cc12 [X-1011]	0.089 µM	7.56 µM	
COC(C)c1ccc2c(=O)n(CC(=O)N[C@H]3C[C@@](C)(O)C3)nc(C(C)C)c2c1 (some centres unmarked) [X-1055]	2.13 µM	> 20 µM	
CC(C)c1nn(CC(=O)N[C@H]2C[C@@](C)(O)C2)c(=O)c2ccc(Br)cc12 [Final Cpd 37]	< 0.025 µM	> 10 µM	
CCc1nn(CC(=O)N[C@H]2C[C@@](C)(O)C2)c(=O)c2ccc(C(C)C)cc12 [Final Cpd 20]	0.24 µM	> 10 µM	
